Common to all, as to type: functional
Experiment [1] has as its system Persicaria hydropiper. Nature of the experiment: Herbicidal activity against Persicaria hydropiper assessed as disease control at 1000 ppm treated in foliage during 15 to 20 days relative to control.
A further experiment concerns Botrytis cinerea. Nature of the experiment: Antifungal activity against Botryotinia fuckeliana after 7 days. On the set-up: concentration or dose not given beside the values.
In another experiment the test system is Xanthomonas axonopodis. The experiment is described as follows: Antibacterial activity against Xanthomonas axonopodis after 7 days. On the set-up: concentration or dose not given beside the values.
Experiment [2] deals with Amaranthus viridis. Nature of the experiment: Herbicidal activity against Amaranthus viridis assessed as disease control at 1000 ppm treated in foliage during 15 to 20 days relative to control.
The subject of experiment [3] is Echinochloa crus-galli. Nature of the experiment: Herbicidal activity against Echinochloa crus-galli (barnyard grass) assessed as disease control at 1000 ppm treated in paddy field during 15 to 20 days relative to control.
A further experiment deals with Cyperus compressus. Nature of the experiment: Herbicidal activity against Cyperus compressus assessed as disease control at 1000 ppm treated in paddy field during 15 to 20 days relative to control.
In experiment [4] the test system is Eleusine indica. Nature of the experiment: Herbicidal activity against Eleusine indica assessed as disease control at 1000 ppm treated in soil during 15 to 20 days relative to control.
Experiment [5] concerns Echinochloa crus-galli. The experiment is described as follows: Herbicidal activity against Echinochloa crus-galli (barnyard grass) assessed as disease control at 1000 ppm treated in foliage during 15 to 20 days relative to control.
The subject of experiment [6] is Amaranthus viridis. Nature of the experiment: Herbicidal activity against Amaranthus viridis assessed as disease control at 1000 ppm treated in soil during 15 to 20 days relative to control.
The subject of experiment [7] is Chenopodium album. Nature of the experiment: Herbicidal activity against Chenopodium album assessed as disease control at 1000 ppm treated in soil during 15 to 20 days relative to control.
In another experiment the test system is Fusarium fujikuroi. The experiment is described as follows: Antifungal activity against Fusarium fujikuroi after 7 days. On the set-up: concentration or dose not given beside the values.
In experiment [8] the test system is Pseudoperonospora cubensis. Nature of the experiment: Antifungal activity against Pseudoperonospora cubensis after 7 days. On the set-up: concentration or dose not given beside the values.
Experiment [9] relates to Echinochloa crus-galli. The experiment is described as follows: Herbicidal activity against Echinochloa crus-galli (barnyard grass) assessed as disease control at 1000 ppm treated in soil during 15 to 20 days relative to control.
A further experiment relates to Oryza sativa. Nature of the experiment: Herbicidal activity against Oryza sativa assessed as disease control at 1000 ppm treated in paddy field during 15 to 20 days relative to control.
Experiment [10] deals with Persicaria hydropiper. The experiment is described as follows: Herbicidal activity against Persicaria hydropiper assessed as disease control at 1000 ppm treated in soil during 15 to 20 days relative to control.
The subject of experiment [11] is Eleusine indica. The experiment is described as follows: Herbicidal activity against Eleusine indica assessed as disease control at 1000 ppm treated in foliage during 15 to 20 days relative to control.
Experiment [12] concerns Chenopodium album. The experiment is described as follows: Herbicidal activity against Chenopodium album assessed as disease control at 1000 ppm treated in foliage during 15 to 20 days relative to control.
The next experiment has as its system Pyricularia oryzae. Nature of the experiment: Antifungal activity against Magnaporthe oryzae after 7 days. On the set-up: concentration or dose not given beside the values.

This note sets out measurements from ChEMBL document CHEMBL3045339, “Synthesis of benzoxazoles, benzothiazoles and benzimidazoles and evaluation of their antifungal, insecticidal and herbicidal activities” (1992).

Each structure is given as a SMILES string. Bounds are passed on as bounds.

For the compound `COc1ccc2[nH]c(-c3ccncc3)nc2c1`, the Activity is recorded as below 39% with Persicaria hydropiper [1]; 60% with Botrytis cinerea; 60% in the experiment on Xanthomonas axonopodis; below 39% in the experiment on Amaranthus viridis [2]; below 39% with Echinochloa crus-galli [3]; below 39% in the experiment on Cyperus compressus. Moreover, the Activity with Eleusine indica [4] is below 39%; in the experiment with Echinochloa crus-galli [5] it was below 39%; with Amaranthus viridis [6], below 39%; in the experiment on Chenopodium album [7], below 39%; in the experiment on Fusarium fujikuroi, below 39%; in experiment [8] it was 40%. In addition, the Activity with Echinochloa crus-galli [9] is below 39%; with Oryza sativa, below 39%; with Persicaria hydropiper [10], below 39%; with Eleusine indica [11], below 39%; in the experiment with Chenopodium album [12] it was below 39%; in the experiment with Pyricularia oryzae, above 80%.
`c1ccc(-c2nc3ccccc3o2)nc1`: the Activity in the experiment with Persicaria hydropiper [1] is given as below 39%; in the experiment with Botrytis cinerea, below 39%; with Xanthomonas axonopodis, below 39%; in the experiment on Amaranthus viridis [2], below 39%; in the experiment on Echinochloa crus-galli [3] it was below 39%; in the experiment with Cyperus compressus it was 40%. Also, the Activity (in the experiment on Eleusine indica [4]; in the experiment on Echinochloa crus-galli [5]; in the experiment with Amaranthus viridis [6]; in the experiment with Chenopodium album [7]; in the experiment on Fusarium fujikuroi; in experiment [8]) was below 39% throughout. Also, the Activity with Echinochloa crus-galli [9], with Oryza sativa, with Persicaria hydropiper [10], in the experiment on Eleusine indica [11], in the experiment with Chenopodium album [12] and with Pyricularia oryzae was below 39% throughout.
Consider `c1ccc2oc(-c3nc4ccccc4s3)nc2c1`, for which the Activity in the experiment on Persicaria hydropiper [1], with Botrytis cinerea, in the experiment on Xanthomonas axonopodis, with Amaranthus viridis [2], in the experiment on Echinochloa crus-galli [3] and with Cyperus compressus was below 39% in each case. In addition, the Activity (with Eleusine indica [4]; in the experiment with Echinochloa crus-galli [5]; in the experiment on Amaranthus viridis [6]; in the experiment on Chenopodium album [7]; in the experiment with Fusarium fujikuroi; in [8]) was below 39% throughout. The Activity with Echinochloa crus-galli [9], in the experiment on Oryza sativa, with Persicaria hydropiper [10], in the experiment on Eleusine indica [11], with Chenopodium album [12] and in the experiment on Pyricularia oryzae was below 39% throughout.
For the compound `O=[N+]([O-])c1cccc2nc(-c3ccccn3)[nH]c12`, the Activity with Persicaria hydropiper [1], in the experiment with Botrytis cinerea, in the experiment on Xanthomonas axonopodis, in the experiment on Amaranthus viridis [2], in the experiment on Echinochloa crus-galli [3] and in the experiment on Cyperus compressus was below 39% in each case. The Activity (in the experiment on Eleusine indica [4]; in the experiment on Echinochloa crus-galli [5]; with Amaranthus viridis [6]; with Chenopodium album [7]; in the experiment on Fusarium fujikuroi; in experiment [8]) was below 39% each time. For the same compound, the Activity is reported as below 39% in the experiment with Echinochloa crus-galli [9]; below 39% in the experiment with Oryza sativa; below 39% in the experiment with Persicaria hydropiper [10]; below 39% in the experiment on Eleusine indica [11]; below 39% with Chenopodium album [12]; 40% in the experiment on Pyricularia oryzae.
Turning to `CCOc1ccc2sc(-c3ccccn3)nc2c1`, the Activity in the experiment on Persicaria hydropiper [1] is listed as below 39%; in the experiment with Botrytis cinerea, below 39%; in the experiment with Xanthomonas axonopodis, below 39%; in the experiment on Amaranthus viridis [2], 40%; in the experiment with Echinochloa crus-galli [3], 40%; in the experiment on Cyperus compressus it was 40%. For the same compound, the Activity (in the experiment on Eleusine indica [4]; in the experiment on Echinochloa crus-galli [5]; in the experiment with Amaranthus viridis [6]; in the experiment with Chenopodium album [7]; in the experiment with Fusarium fujikuroi; in experiment [8]) was below 39% throughout. Further, the Activity was below 39% in the experiment on Echinochloa crus-galli [9]; below 39% in the experiment on Oryza sativa; below 39% with Persicaria hydropiper [10]; below 39% with Eleusine indica [11]; 60% with Chenopodium album [12]; below 39% in the experiment on Pyricularia oryzae.
Regarding `Clc1ccc2sc(-c3ccccn3)nc2c1`, the Activity in the experiment on Persicaria hydropiper [1] was below 39%; in the experiment on Botrytis cinerea it was below 39%; with Xanthomonas axonopodis, below 39%; in the experiment on Amaranthus viridis [2] it was 60%; with Echinochloa crus-galli [3], below 39%; in the experiment on Cyperus compressus, above 80%. Besides, the Activity (in the experiment on Eleusine indica [4]; in the experiment on Echinochloa crus-galli [5]; with Amaranthus viridis [6]; in the experiment on Chenopodium album [7]; in the experiment on Fusarium fujikuroi; in experiment [8]) was below 39% each time. For the same compound, the Activity is below 39% with Echinochloa crus-galli [9]; below 39% in the experiment with Oryza sativa; below 39% with Persicaria hydropiper [10]; below 39% in the experiment with Eleusine indica [11]; 40% in the experiment with Chenopodium album [12]; below 39% in the experiment with Pyricularia oryzae.
Consider `c1ccc2oc(-c3ccncc3)nc2c1`, for which the Activity is on record as below 39% in the experiment with Persicaria hydropiper [1]; 40% with Botrytis cinerea; below 39% in the experiment with Xanthomonas axonopodis; below 39% with Amaranthus viridis [2]; 40% in the experiment on Echinochloa crus-galli [3]; below 39% in the experiment on Cyperus compressus. Further, the Activity with Eleusine indica [4] is listed as below 39%; in the experiment with Echinochloa crus-galli [5], below 39%; in the experiment on Amaranthus viridis [6] it was below 39%; in the experiment on Chenopodium album [7], below 39%; in the experiment on Fusarium fujikuroi, 60%; in [8] it was below 39%. The Activity with Echinochloa crus-galli [9], in the experiment on Oryza sativa, in the experiment with Persicaria hydropiper [10], in the experiment with Eleusine indica [11], in the experiment on Chenopodium album [12] and in the experiment on Pyricularia oryzae was below 39% in each case.
Consider `COc1ccc2sc(-c3ccncc3)nc2c1`, for which the Activity in the experiment on Persicaria hydropiper [1] is below 39%; in the experiment with Botrytis cinerea it was below 39%; in the experiment on Xanthomonas axonopodis, below 39%; in the experiment on Amaranthus viridis [2], below 39%; in the experiment with Echinochloa crus-galli [3] it was below 39%; with Cyperus compressus it was 60%. The Activity (in the experiment with Eleusine indica [4]; in the experiment with Echinochloa crus-galli [5]; in the experiment with Amaranthus viridis [6]; with Chenopodium album [7]; with Fusarium fujikuroi; in experiment [8]) was below 39% in each case. The Activity in the experiment with Echinochloa crus-galli [9], in the experiment with Oryza sativa, in the experiment on Persicaria hydropiper [10], in the experiment on Eleusine indica [11], with Chenopodium album [12] and in the experiment on Pyricularia oryzae was below 39% throughout.
In the case of `COc1ccc2sc(-c3ccccn3)nc2c1`, the Activity in the experiment on Persicaria hydropiper [1] is given as below 39%; in the experiment with Botrytis cinerea, below 39%; with Xanthomonas axonopodis, below 39%; in the experiment on Amaranthus viridis [2], 40%; in the experiment with Echinochloa crus-galli [3] it was below 39%; in the experiment on Cyperus compressus, 60%. The Activity (in the experiment with Eleusine indica [4]; in the experiment on Echinochloa crus-galli [5]; in the experiment with Amaranthus viridis [6]; with Chenopodium album [7]; with Fusarium fujikuroi; in [8]) was below 39% in each case. Further, the Activity is recorded as below 39% in the experiment on Echinochloa crus-galli [9]; 40% in the experiment with Oryza sativa; below 39% in the experiment with Persicaria hydropiper [10]; below 39% in the experiment on Eleusine indica [11]; below 39% in the experiment with Chenopodium album [12]; below 39% in the experiment with Pyricularia oryzae.
